From ChEMBL document CHEMBL4823282, “Novel Broad-Spectrum Antimicrobial Peptide Derived from Anoplin and Its Activity on Bacterial Pneumonia in Mice” (J Med Chem, 2021)
In brackets after ≈: the same amount, converted by molar mass. Where a SMILES comes first, the peptide text is derived from it.

What was measured:
[1] = system: Bacteria; assay: Antibacterial activity against bacteria incubated for 18 hrs by CLSI based broth dilution method; type: functional
[2] = system: Acinetobacter baumannii; assay: Antibacterial activity against Acinetobacter baumannii ATCC 19606 incubated for 18 hrs by CLSI based broth dilution method; type: functional; details: ATCC 19606 = CIP 70.34 = JCM 6841
[3] = Selectivity ratio of MHC10 for BALB/C mouse erythrocytes to MIC for gram-negative bacteria; type: toxicity
[4] = system: Pseudomonas aeruginosa; assay: Synergistic antibacterial activity against Pseudomonas aeruginosa ATCC 27853 at 2 times MIC incubated for 18 to 24 hrs in presence of 2 times MIC of rifampicin by broth microdilution assay based checkerboard assay; type: functional; details: time 18-24 hrs
[5] = system: Staphylococcus epidermidis; assay: Antibacterial activity against Staphylococcus epidermidis ATCC 12228 incubated for 18 hrs by CLSI based broth dilution method; type: functional
[6] = system: Fungi; assay: Antibacterial activity against fungi incubated for 18 hrs by CLSI based broth dilution method; type: functional
[7] = system: Bacillus subtilis; assay: Antibacterial activity against Bacillus subtilis ATCC 23857 incubated for 18 hrs by CLSI based broth dilution method; type: functional
[8] = system: Bacteria; assay: Antibacterial activity against Gram-positive bacteria incubated for 18 hrs by CLSI based broth dilution method; type: functional
[9] = Selectivity ratio of MHC10 for BALB/C mouse erythrocytes to MIC for fungi; type: toxicity
[10] = Selectivity ratio of MHC10 for BALB/C mouse erythrocytes to MIC for bacteria; type: toxicity
[11] = Selectivity ratio of MHC10 for BALB/C mouse erythrocytes to MIC for gram positive bacteria; type: toxicity
[12] = Cytotoxicity against human glomerular mesangial cells incubated for 12 hrs by MTT assay; type: cell-based; details: Glomerular mesangial cell
[13] = system: Staphylococcus aureus; assay: Antibacterial activity against Staphylococcus aureus ATCC 25923 incubated for 18 hrs by CLSI based broth dilution method; type: functional
[14] = system: Enterococcus faecalis; assay: Antibacterial activity against Enterococcus faecalis ATCC 29212 incubated for 18 hrs by CLSI based broth dilution method; type: functional
[15] = system: Pseudomonas aeruginosa; assay: Antibacterial activity against Pseudomonas aeruginosa ATCC 27853 incubated for 18 hrs by CLSI based broth dilution method; type: functional
[16] = system: Pseudomonas aeruginosa; assay: Synergistic antibacterial activity against Pseudomonas aeruginosa ATCC 27853 at 2 times MIC incubated for 18 to 24 hrs in presence of 2 times MIC of polymyxin B by broth microdilution assay based checkerboard assay; type: functional; details: time 18-24 hrs
[17] = system: Escherichia coli; assay: Antibacterial activity against Escherichia coli ATCC 25922 incubated for 18 hrs by CLSI based broth dilution method; type: functional
[18] = system: Erythrocyte; assay: Hemolytic activity in BALB/C mouse erythrocytes incubated for 1 hr by absorbance method; type: ADME, cell-based
[19] = system: Klebsiella pneumoniae; assay: Antibacterial activity against Klebsiella pneumoniae ATCC 700603 incubated for 18 hrs by CLSI based broth dilution method; type: functional

| MIC [1] [µM] | MIC [2] [µM] | MIC [5] [µM] | MIC [6] [µM] | MIC [7] [µM] | MIC [8] [µM] | MIC [13] [µM] | MIC [14] [µM] | MIC [15] [µM] | MIC [17] [µM] | MIC [19] [µM] | SMILES | selectivity ratio [3] | FIC [4] | selectivity ratio [9] | selectivity ratio [10] | selectivity ratio at 18 h [11] | IC50 [12] [µM] | FIC [16] | MHC10 [18] |
| --- | --- | --- | --- | --- | --- | --- | --- | --- | --- | --- | --- | --- | --- | --- | --- | --- | --- | --- | --- |
| 32 (≈ 46 µg/mL) | 128 (≈ 184 µg/mL) | 128 (≈ 184 µg/mL) | 32 (≈ 46 µg/mL) | 16 (≈ 23 µg/mL) | 38.1 (≈ 54.8 µg/mL) | 16 (≈ 23 µg/mL) | 64 (≈ 92.1 µg/mL) | 16 (≈ 23 µg/mL) | 16 (≈ 23 µg/mL) | 32 (≈ 46 µg/mL) | CC[C@H](C)[C@H](NC(=O)[C@H](CCCNC(=N)N)NC(=O)[C@H](CCCCN)NC(=O)[C@H](Cc1ccccc1)NC(=O)[C@H](Cc1c[nH]c2ccccc12)NC(=O)[C@@H](N)CCCCN)C(=O)N[C@@H](CCCCN)C(=O)N[C@H](C(=O)N[C@@H](Cc1ccccc1)C(=O)N[C@@H](Cc1c[nH]c2ccccc12)C(N)=O)[C@@H](C)O (H-KWFKRIKTFW-NH2) | 19 | 0.3125 | 16 | 16 | 13.4 | 80.2 | 0.25 | >= 512 uM |
| 16 (≈ 21.9 µg/mL) | 64 (≈ 87.5 µg/mL) | 4 (≈ 5.47 µg/mL) | 16 (≈ 21.9 µg/mL) | 4 (≈ 5.47 µg/mL) | 11.3 (≈ 15.5 µg/mL) | 16 (≈ 21.9 µg/mL) | 64 (≈ 87.5 µg/mL) | 16 (≈ 21.9 µg/mL) | 16 (≈ 21.9 µg/mL) | 32 (≈ 43.8 µg/mL) | CC[C@H](C)[C@H](NC(=O)[C@H](CCCNC(=N)N)NC(=O)[C@H](CCCCN)NC(=O)[C@H](Cc1ccccc1)NC(=O)[C@H](Cc1c[nH]c2ccccc12)NC(=O)CN)C(=O)N[C@@H](CCCCN)C(=O)N[C@H](C(=O)N[C@@H](Cc1ccccc1)C(=O)N[C@@H](Cc1c[nH]c2ccccc12)C(N)=O)[C@@H](C)O (H-GWFKRIKTFW-NH2) | 17 | 0.3125 | 24 | 24 | 34 | 98.3 | 0.25 | 384 µM |
| 29.3 (≈ 38.7 µg/mL) | 64 (≈ 84.3 µg/mL) | 64 (≈ 84.3 µg/mL) | 29.3 (≈ 38.7 µg/mL) | 16 (≈ 21.1 µg/mL) | 32 (≈ 42.2 µg/mL) | 16 (≈ 21.1 µg/mL) | 64 (≈ 84.3 µg/mL) | 32 (≈ 42.2 µg/mL) | 32 (≈ 42.2 µg/mL) | 32 (≈ 42.2 µg/mL) | CC[C@H](C)[C@H](NC(=O)[C@H](CCCNC(=N)N)NC(=O)[C@H](CCCNC(=N)N)NC(=O)[C@H](Cc1ccccc1)NC(=O)[C@H](Cc1ccccc1)NC(=O)CN)C(=O)N[C@@H](CCCCN)C(=O)N[C@H](C(=O)N[C@@H](Cc1ccccc1)C(=O)N[C@@H](Cc1ccccc1)C(N)=O)[C@@H](C)O (H-GFFRRIKTFF-NH2) | 19 | 0.3125 | 17.4 | 17.4 | 16 | 91.9 | 0.5 | >= 512 uM |

Further lines, the molecule ahead of its results:

| SMILES | MIC [1] [µM] | MIC [2] [µM] | MIC [5] [µM] | MIC [6] [µM] | MIC [7] [µM] | MIC [8] [µM] | MIC [13] [µM] | MIC [14] [µM] | MIC [15] [µM] | MIC [17] [µM] | MIC [19] [µM] | selectivity ratio [3] | FIC [4] | selectivity ratio [9] | selectivity ratio [10] | selectivity ratio at 18 h [11] | IC50 [12] [µM] | FIC [16] | MHC10 [18] |
| --- | --- | --- | --- | --- | --- | --- | --- | --- | --- | --- | --- | --- | --- | --- | --- | --- | --- | --- | --- |
| CC[C@H](C)[C@H](NC(=O)[C@H](CCCNC(=N)N)NC(=O)[C@H](CCCCN)NC(=O)[C@H](Cc1ccccc1)NC(=O)[C@H](Cc1ccccc1)NC(=O)CN)C(=O)N[C@@H](CCCNC(=N)N)C(=O)N[C@H](C(=O)N[C@@H](Cc1ccccc1)C(=O)N[C@@H](Cc1ccccc1)C(N)=O)[C@@H](C)O (H-GFFKRIRTFF-NH2) | 26.9 (≈ 35.5 µg/mL) | 64 (≈ 84.3 µg/mL) | 64 (≈ 84.3 µg/mL) | 26.9 (≈ 35.5 µg/mL) | 16 (≈ 21.1 µg/mL) | 32 (≈ 42.2 µg/mL) | 16 (≈ 21.1 µg/mL) | 64 (≈ 84.3 µg/mL) | 32 (≈ 42.2 µg/mL) | 32 (≈ 42.2 µg/mL) | 32 (≈ 42.2 µg/mL) | 22.6 | 0.5625 | 19 | 19 | 16 | 88.9 | 0.5625 | >= 512 uM |
| CC[C@H](C)[C@H](NC(=O)[C@H](CCCNC(=N)N)NC(=O)[C@H](CCCNC(=N)N)NC(=O)[C@H](Cc1ccccc1)NC(=O)[C@H](Cc1ccccc1)NC(=O)CN)C(=O)N[C@@H](CCCNC(=N)N)C(=O)N[C@H](C(=O)N[C@@H](Cc1ccccc1)C(=O)N[C@@H](Cc1ccccc1)C(N)=O)[C@@H](C)O (H-GFFRRIRTFF-NH2) | 17.4 (≈ 23.5 µg/mL) | 32 (≈ 43.1 µg/mL) | 32 (≈ 43.1 µg/mL) | 17.4 (≈ 23.5 µg/mL) | 8 (≈ 10.8 µg/mL) | 16 (≈ 21.5 µg/mL) | 8 (≈ 10.8 µg/mL) | 32 (≈ 43.1 µg/mL) | 32 (≈ 43.1 µg/mL) | 32 (≈ 43.1 µg/mL) | 32 (≈ 43.1 µg/mL) | 26.9 | 0.5625 | 29.3 | 29.3 | 32 | 52.6 | 0.5625 | >= 512 uM |
